Data from ChEMBL document CHEMBL2346573, “Probing the role of the vancomycin e-ring aryl chloride: selective divergent synthesis and evaluation of alternatively substituted E-ring analogues” (2013).
Converted amounts (≈) assume the structure as drawn.

Assays:
Staphylococcus aureus [1] = assay: Antimicrobial activity against vancomycin-sensitive Staphylococcus aureus ATCC 25923 after 24 hrs by microtiter plate assay; format: functional; details: ATCC 25923, 24 h
Enterococcus faecalis [2] = assay: Antimicrobial activity against VanB vancomycin-resistant Enterococcus faecalis ATCC 51299 after 24 hrs by microtiter plate assay; format: functional; details: ATCC 51299, 24 h
[3] = Binding affinity to N,N'-Ac2-L-Lys-D-Ala-D-Ala (unknown origin)
Enterococcus faecalis [4] = assay: Antimicrobial activity against VanA vancomycin-resistant Enterococcus faecalis BM4166; format: functional
Enterococcus faecalis [5] = assay: Antimicrobial activity against VanB vancomycin-resistant Enterococcus faecalis ATCC 51299; format: functional
Staphylococcus aureus [6] = assay: Antimicrobial activity against Staphylococcus aureus ATCC 25923; format: functional
[7] = Ratio of MIC for VanB vancomycin-resistant Enterococcus faecalis ATCC 51299 to MIC for vancomycin-sensitive Staphylococcus aureus ATCC 25923; format: functional

For `CN[C@H](CC(C)C)C(=O)N[C@H]1C(=O)N[C@@H](CC(N)=O)C(=O)N[C@H]2C(=O)N[C@H]3C(=O)N[C@H](C(=O)N[C@H](C(=O)OC)c4cc(OC)cc(OC)c4-c4cc3ccc4OC)[C@H](O)c3ccc(c(Cl)c3)Oc3cc2cc(c3OC)Oc2ccc(cc2[N+](=O)[O-])[C@H]1O`, the MIC (Staphylococcus aureus [1]) was greater than 40 µg/mL, the MIC (Enterococcus faecalis [2]) was greater than 40 µg/mL and the Ka [3] was 0.097 ×10⁵ /M.

Compound `COC(=O)[C@H]1NC(=O)[C@H]2NC(=O)[C@H](NC(=O)[C@@H]3NC(=O)[C@H]4NC(=O)[C@@H](Cc5ccc(c(Cl)c5)Oc5cc3cc(c5OC)Oc3ccc(cc3Cl)[C@H]2O)NC(=O)[C@H](N)c2ccc(OC)c(c2)Oc2cc(OC)cc4c2)c2ccc(OC)c(c2)-c2c(OC)cc(OC)cc21` has an MIC (Enterococcus faecalis [4]) greater than 100 µg/mL, an MIC (Enterococcus faecalis [5]) of 3.2 µg/mL (≈ 2.47 µM) and an MIC (Staphylococcus aureus [6]) of 3.2 µg/mL (≈ 2.47 µM).

In the case of `CN[C@H](CC(C)C)C(=O)N[C@H]1C(=O)N[C@@H](CC(N)=O)C(=O)N[C@H]2C(=O)N[C@H]3C(=O)N[C@H](C(=O)N[C@H](C(=O)OC)c4cc(OC)cc(OC)c4-c4cc3ccc4OC)[C@H](O)c3ccc(c(Cl)c3)Oc3cc2cc(c3OC)Oc2ccc(cc2OC)[C@H]1O`, the MIC (Staphylococcus aureus [1]) is reported as 2.5 µg/mL (≈ 2.07 µM), the MIC (Enterococcus faecalis [2]) is reported as 5 µg/mL (≈ 4.13 µM) and the Ka [3] is reported as 1.2 ×10⁵ /M.

`CN[C@H](CC(C)C)C(=O)N[C@H]1C(=O)N[C@@H](CC(N)=O)C(=O)N[C@H]2C(=O)N[C@H]3C(=O)N[C@H](C(=O)N[C@H](C(=O)OC)c4cc(OC)cc(OC)c4-c4cc3ccc4OC)[C@H](O)c3ccc(c(Cl)c3)Oc3cc2cc(c3OC)Oc2ccc(cc2)[C@H]1O` gave a Ratio [7] of 1, an MIC (Staphylococcus aureus [1]) of 5 µg/mL (≈ 4.24 µM) and an MIC (Enterococcus faecalis [2]) of 5 µg/mL (≈ 4.24 µM). The Ka [3] was 0.71 ×10⁵ /M.

For `N[C@H]1C(=O)N[C@@H]2Cc3ccc(c(Cl)c3)Oc3cc4cc(c3O)Oc3ccc(cc3Cl)[C@@H](O)[C@@H]3NC(=O)[C@H](NC(=O)[C@@H]4NC(=O)[C@@H](NC2=O)c2cc(O)cc(c2)Oc2cc1ccc2O)c1ccc(O)c(c1)-c1c(O)cc(O)cc1[C@@H](C(=O)O)NC3=O` [TEICOPLANIN AGLYCON], the MIC (Enterococcus faecalis [4]) was greater than 100 µg/mL, the MIC (Enterococcus faecalis [5]) was 25 µg/mL (≈ 20.9 µM) and the MIC (Staphylococcus aureus [6]) was 1.6 µg/mL (≈ 1.33 µM).

`CN[C@H](CC(C)C)C(=O)N[C@H]1C(=O)N[C@@H](CC(N)=O)C(=O)N[C@H]2C(=O)N[C@H]3C(=O)N[C@H](C(=O)N[C@H](C(=O)OC)c4cc(OC)cc(OC)c4-c4cc3ccc4OC)[C@H](O)c3ccc(c(Cl)c3)Oc3cc2cc(c3OC)Oc2ccc(cc2Br)[C@H]1O` showed an MIC (Staphylococcus aureus [1]) of 2.5 µg/mL (≈ 1.99 µM), an MIC (Enterococcus faecalis [2]) of 5 µg/mL (≈ 3.97 µM) and a Ka [3] of 1.1 ×10⁵ /M.

Work on `CN[C@H](CC(C)C)C(=O)N[C@H]1C(=O)N[C@@H](CC(N)=O)C(=O)N[C@H]2C(=O)N[C@H]3C(=O)N[C@H](C(=O)N[C@H](C(=O)O)c4cc(O)cc(O)c4-c4cc3ccc4O)[C@H](O)c3ccc(c(Cl)c3)Oc3cc2cc(c3O[C@@H]2O[C@H](CO)[C@@H](O)[C@H](O)[C@H]2O[C@H]2C[C@](C)(N)[C@H](O)[C@H](C)O2)Oc2ccc(cc2Cl)[C@H]1O` [VANCOMYCIN] yielded an MIC (Enterococcus faecalis [4]) greater than 100 µg/mL, an MIC (Staphylococcus aureus [1]) of 1.25 µg/mL (≈ 0.863 µM) and an MIC (Enterococcus faecalis [2]) of 120 µg/mL (≈ 82.8 µM). For the same compound, the MIC (Enterococcus faecalis [5]) was 120 µg/mL (≈ 82.8 µM).

With `CN[C@H](CC(C)C)C(=O)N[C@H]1C(=O)N[C@@H](CC(N)=O)C(=O)N[C@H]2C(=O)N[C@H]3C(=O)N[C@H](C(=O)N[C@H](C(=O)O)c4cc(O)cc(O)c4-c4cc3ccc4O)[C@H](O)c3ccc(c(Cl)c3)Oc3cc2cc(c3O)Oc2ccc(cc2Cl)[C@H]1O` [VANCOMYCIN AGLYCON] the MIC (Enterococcus faecalis [4]) was greater than 100 µg/mL, the MIC (Staphylococcus aureus [1]) was 1.25 µg/mL (≈ 1.09 µM) and the MIC (Enterococcus faecalis [2]) was 40 µg/mL (≈ 35 µM). It also gave an MIC (Enterococcus faecalis [5]) greater than 100 µg/mL, a Ka [3] of 1.4 ×10⁵ /M and an MIC (Staphylococcus aureus [6]) of 0.8 µg/mL (≈ 0.699 µM).

`CN[C@H](CC(C)C)C(=O)N[C@H]1C(=O)N[C@@H](CC(N)=O)C(=O)N[C@H]2C(=O)N[C@H]3C(=O)N[C@H](C(=O)N[C@H](C(=O)OC)c4cc(OC)cc(OC)c4-c4cc3ccc4OC)[C@H](O)c3ccc(c(Cl)c3)Oc3cc2cc(c3OC)Oc2ccc(cc2C)[C@H]1O` showed an MIC (Staphylococcus aureus [1]) of 2.5 µg/mL (≈ 2.09 µM), an MIC (Enterococcus faecalis [2]) of 5 µg/mL (≈ 4.19 µM) and a Ka [3] of 1.2 ×10⁵ /M.

For `CN[C@H](CC(C)C)C(=O)N[C@H]1C(=O)N[C@@H](CC(N)=O)C(=O)N[C@H]2C(=O)N[C@H]3C(=O)N[C@H](C(=O)N[C@H](C(=O)OC)c4cc(OC)cc(OC)c4-c4cc3ccc4OC)[C@H](O)c3ccc(c(Cl)c3)Oc3cc2cc(c3OC)Oc2ccc(cc2C(=O)OC)[C@H]1O`, the MIC (Staphylococcus aureus [1]) was 2.5 µg/mL (≈ 2.02 µM), the MIC (Enterococcus faecalis [2]) was 10 µg/mL (≈ 8.08 µM) and the Ka [3] was 1 ×10⁵ /M.

In the case of `CN[C@H](CC(C)C)C(=O)N[C@H]1C(=O)N[C@@H](CC(N)=O)C(=O)N[C@H]2C(=O)N[C@H]3C(=O)N[C@H](C(=O)N[C@H](C(=O)OC)c4cc(OC)cc(OC)c4-c4cc3ccc4OC)[C@H](O)c3ccc(c(Cl)c3)Oc3cc2cc(c3OC)Oc2ccc(cc2B(O)O)[C@H]1O`, the MIC (Staphylococcus aureus [1]) is reported as 5 µg/mL (≈ 4.09 µM), the MIC (Enterococcus faecalis [2]) is reported as 10 µg/mL (≈ 8.17 µM) and the Ka [3] is reported as 0.23 ×10⁵ /M.

`CN[C@H](CC(C)C)C(=O)N[C@H]1C(=O)N[C@@H](CC(N)=O)C(=O)N[C@H]2C(=O)N[C@H]3C(=O)N[C@H](C(=O)N[C@H](C(=O)OC)c4cc(OC)cc(OC)c4-c4cc3ccc4OC)[C@H](O)c3ccc(c(Cl)c3)Oc3cc2cc(c3OC)Oc2ccc(cc2C(F)(F)F)[C@H]1O` showed a Ratio [7] of 8, an MIC (Staphylococcus aureus [1]) of 2.5 µg/mL (≈ 2 µM) and an MIC (Enterococcus faecalis [2]) of 20 µg/mL (≈ 16 µM). For the same compound, the Ka [3] was 1.2 ×10⁵ /M.

`CN[C@H](CC(C)C)C(=O)N[C@H]1C(=O)N[C@@H](CC(N)=O)C(=O)N[C@H]2C(=O)N[C@H]3C(=O)N[C@H](C(=O)N[C@H](C(=O)O)c4cc(O)cc(O)c4-c4cc3ccc4O)[C@H](O)c3ccc(c(Cl)c3)Oc3cc2cc(c3O)Oc2ccc(cc2O)[C@H]1O` gave an MIC (Staphylococcus aureus [1]) of 5 µg/mL (≈ 4.44 µM), an MIC (Enterococcus faecalis [2]) of 40 µg/mL (≈ 35.5 µM) and a Ka [3] of 0.53 ×10⁵ /M.

In the case of `CN[C@H](CC(C)C)C(=O)N[C@H]1C(=O)N[C@@H](CC(N)=O)C(=O)N[C@H]2C(=O)N[C@H]3C(=O)N[C@H](C(=O)N[C@H](C(=O)OC)c4cc(OC)cc(OC)c4-c4cc3ccc4OC)[C@H](O)c3ccc(c(Cl)c3)Oc3cc2cc(c3OC)Oc2ccc(cc2O)[C@H]1O`, the Ratio [7] is reported as 1, the MIC (Staphylococcus aureus [1]) is reported as 5 µg/mL (≈ 4.18 µM) and the MIC (Enterococcus faecalis [2]) is reported as 5 µg/mL (≈ 4.18 µM). For the same compound, the Ka [3] was 0.88 ×10⁵ /M.

`CN[C@H](CC(C)C)C(=O)N[C@H]1C(=O)N[C@@H](CC(N)=O)C(=O)N[C@H]2C(=O)N[C@H]3C(=O)N[C@H](C(=O)N[C@H](C(=O)OC)c4cc(OC)cc(OC)c4-c4cc3ccc4OC)[C@H](O)c3ccc(c(Cl)c3)Oc3cc2cc(c3OC)Oc2ccc(cc2C#N)[C@H]1O` showed an MIC (Staphylococcus aureus [1]) of 2.5 µg/mL (≈ 2.08 µM), an MIC (Enterococcus faecalis [2]) of 5 µg/mL (≈ 4.15 µM) and a Ka [3] of 1.1 ×10⁵ /M.

`CN[C@H](CC(C)C)C(=O)N[C@H]1C(=O)N[C@@H](CC(N)=O)C(=O)N[C@H]2C(=O)N[C@H]3C(=O)N[C@H](C(=O)N[C@H](C(=O)OC)c4cc(OC)cc(OC)c4-c4cc3ccc4OC)[C@H](O)c3ccc(c(Cl)c3)Oc3cc2cc(c3OC)Oc2ccc(cc2N=[N+]=[N-])[C@H]1O` gave an MIC (Staphylococcus aureus [1]) of 1.25 µg/mL (≈ 1.02 µM), an MIC (Enterococcus faecalis [2]) of 5 µg/mL (≈ 4.1 µM) and a Ka [3] of 1.2 ×10⁵ /M.

In the case of `CN[C@H](CC(C)C)C(=O)N[C@H]1C(=O)N[C@@H](CC(N)=O)C(=O)N[C@H]2C(=O)N[C@H]3C(=O)N[C@H](C(=O)N[C@H](C(=O)O)c4cc(O)cc(O)c4-c4cc3ccc4O)[C@H](O)c3ccc(c(Cl)c3)Oc3cc2cc(c3O)Oc2ccc(cc2)[C@H]1O`, the MIC (Staphylococcus aureus [1]) is reported as 5 µg/mL (≈ 4.51 µM), the MIC (Enterococcus faecalis [2]) is reported as 80 µg/mL (≈ 72.1 µM) and the Ka [3] is reported as 0.68 ×10⁵ /M.

`CN[C@H](CC(C)C)C(=O)N[C@H]1C(=O)N[C@@H](CC(N)=O)C(=O)N[C@H]2C(=O)N[C@H]3C(=O)N[C@H](C(=O)N[C@H](C(=O)OC)c4cc(OC)cc(OC)c4-c4cc3ccc4OC)[C@H](O)c3ccc(c(Cl)c3)Oc3cc2cc(c3OC)Oc2ccc(cc2N(C)C)[C@H]1O` gave an MIC (Staphylococcus aureus [1]) of 5 µg/mL (≈ 4.09 µM), an MIC (Enterococcus faecalis [2]) of 10 µg/mL (≈ 8.18 µM) and a Ka [3] of 0.34 ×10⁵ /M.

Compound `CN[C@H](CC(C)C)C(=O)N[C@H]1C(=O)N[C@@H](CC(N)=O)C(=O)N[C@H]2C(=O)N[C@H]3C(=O)N[C@H](C(=O)N[C@H](C(=O)OC)c4cc(OC)cc(OC)c4-c4cc3ccc4OC)[C@H](O)c3ccc(c(Cl)c3)Oc3cc2cc(c3OC)Oc2ccc(cc2Cl)[C@H]1O` has an MIC (Enterococcus faecalis [4]) of 50 µg/mL (≈ 41.2 µM), an MIC (Staphylococcus aureus [1]) of 1.25 µg/mL (≈ 1.03 µM) and an MIC (Enterococcus faecalis [2]) of 2.5 µg/mL (≈ 2.06 µM). It also gave an MIC (Enterococcus faecalis [5]) of 2.5 µg/mL (≈ 2.06 µM), a Ka [3] of 1.3 ×10⁵ /M and an MIC (Staphylococcus aureus [6]) of 1.25 µg/mL (≈ 1.03 µM).

`CN[C@H](CC(C)C)C(=O)N[C@H]1C(=O)N[C@@H](CC(N)=O)C(=O)N[C@H]2C(=O)N[C@H]3C(=O)N[C@H](C(=O)N[C@H](C(=O)OC)c4cc(OC)cc(OC)c4-c4cc3ccc4OC)[C@H](O)c3ccc(c(Cl)c3)Oc3cc2cc(c3OC)Oc2ccc(cc2I)[C@H]1O` gave an MIC (Staphylococcus aureus [1]) of 2.5 µg/mL (≈ 1.91 µM), an MIC (Enterococcus faecalis [2]) of 10 µg/mL (≈ 7.66 µM) and a Ka [3] of 1.3 ×10⁵ /M.

Work on `CN[C@H](CC(C)C)C(=O)N[C@H]1C(=O)N[C@@H](CC(N)=O)C(=O)N[C@H]2C(=O)N[C@H]3C(=O)N[C@H](C(=O)N[C@H](C(=O)O)c4cc(O)cc(O)c4-c4cc3ccc4O)[C@H](O)c3ccc(c(Cl)c3)Oc3cc2cc(c3O)Oc2ccc(cc2Br)[C@H]1O` yielded an MIC (Staphylococcus aureus [1]) of 2.5 µg/mL (≈ 2.1 µM), an MIC (Enterococcus faecalis [2]) of 40 µg/mL (≈ 33.7 µM) and a Ka [3] of 1.1 ×10⁵ /M.
